Measured values from paper PMC6255045, “Tyrosinase Inhibitor Activity of Coumarin-Resveratrol Hybrids” (Molecules, 2009).
Where two headings read alike, the source gives them in different places.

Experiments:
[1] = molecular target: mushroom tyrosinase; conditions: cited from earlier work
[2] = tested on: mushroom tyrosinase; test: Tyrosinase inhibition assay (diphenolase activity, L-DOPA as substrate); format: biochemical; conditions: for tyrosinase inhibitory effect (in words): diphenolase activity; for tyrosinase inhibitory effect (in words) / % inhibition (at 0.8 mM) / IC50: substrate L-DOPA; for % inhibition (at 0.8 mM) / IC50: mushroom tyrosinase; for % inhibition (at 0.8 mM): compound at 0.8 mM
Experimental: Tyrosinase activity assays were performed with L-DOPA as substrate, as previously described with slight modifications. The pre-incubation with enzyme consisted of a 1/15 M phosphoric acid buffer solution (pH 6.8, 1.8 mL), an aqueous solution of mushroom tyrosinase (1000 U/mL, Sigma Chemical Co., 0.1 mL) and DMSO (0.1 mL) with or without an added sample. The mixture was pre-incubated at 25°C for 10 minutes. Then, a 1.5 mM L-DOPA solution (1 mL) was added and the reaction was monitored at 475 nm for 5 min. The detected absorbance increases accompanying the oxidation of the substrate (L-DOPA). The final concentration of dopaquinone was measured using the molar absorption coefficient of 3,700 M^-1 cm^-1 [31]. One unit of enzymatic activity was defined as the amount of enzyme transforming 1 μmole of L-DOPA per minute. The percentage of inhibition of tyrosinase activity was calculated as inhibition (%) = (A-B)/A×100, where A represents the difference in the absorbance of control sample between an incubation time of 0.5 and 1.0 min, and B represents the difference in absorbance of the test sample between an incubation time of 0.5 and 1.0 min. The activity of mushroom tyrosinase was determinate by spectrophotometric techniques (Varian Cary 50). DMSO inhibitory activity, in the same experimental conditions, was evaluated as 10.7%.

Row | SMILES | tyrosinase inhibitory effect (in words) [2] | % inhibition (at 0.8 mM) [2] [%] | IC50 [2] [µM] | further results
1 | O=c1ccc2ccc(O)cc2o1 [Umbelliferone] | – | – | – | IC50 ([1]; mushroom tyrosinase, reference compound, ref [20]): 420 µM
2 | O=c1oc2cc(O)ccc2cc1-c1ccccc1 [Compound 1] | did not inhibit any tyrosinase activity | 0 | – | –
3 | O=c1oc2ccccc2cc1-c1ccc(O)cc1 [Compound 2] | no demonstrable inhibitory effects | 0 | – | –
4 | O=c1oc2ccc(O)cc2cc1-c1ccc(O)cc1 [Compound 4, 6-hydroxy-3-(4’-hydroxyphenyl)coumarin] | – | 26.7 | 1560 | –
5 | O=c1oc2cc(O)ccc2cc1-c1ccc(O)cc1 [Compound 3] | no demonstrable inhibitory effects | 9.6 | – | –
6 | O=c1cc(-c2cc(O)c(O)c(O)c2)oc2cc(O)cc(O)c12 [pentahydroxyflavone, 3’,4’,5,5’,7-pentahydroxyflavone] | – | – | – | type of tyrosinase inhibition ([1]; previously reported, ref [29]): competitive inhibitor

The next lines start with results.

Row | tyrosinase inhibitory effect (in words) [2] | % inhibition (at 0.8 mM) [2] [%] | IC50 [2] [µM] | SMILES | further results
7 | – | 68.3 | 270 | O=c1oc2c(O)cc(O)cc2cc1-c1cc(O)c(O)c(O)c1 [Compound 8, 3-(3’,4’,5’-trihydroxyphenyl)-6,8-dihydroxycoumarin] | type of tyrosinase inhibition (Dixon plot) ([2]; with respect to L-DOPA as substrate at 0.5, 0.25 and 0.1 mM): non-competitive
8 | – | 19.3 | 3680 | O=c1oc2cc(O)ccc2cc1-c1cc(O)cc(O)c1 [Compound 6] | –
9 | – | 0 | – | O=c1oc2ccc(O)cc2cc1-c1cc(O)cc(O)c1 [Compound 5] | –
10 | – | 0 | – | O=c1oc2c(O)cc(O)cc2cc1-c1cc(O)cc(O)c1 [Compound 7] | –
